≈ marks a conversion by molar mass, not a printed value.
Legend:
[1] = Solubility of the compound; format: physicochemical
[2] = biological target: Voltage-gated inwardly rectifying potassium channel KCNH2 (Homo sapiens, UniProt Q12809); assay: Displacement of [3H]-dofetilite from human ERG (unknown origin); format: toxicity
Toll-like receptor 7 = biological target: T1, Toll-like receptor 7 (Mus musculus, UniProt P58681); assay: Antagonist activity at TLR7 in mouse Splenocyte assessed as reduction in IFN-alpha level measured after 20 hrs by Spectramax M5 method; format: cell-based
T1 sequence (P58681 whole entry): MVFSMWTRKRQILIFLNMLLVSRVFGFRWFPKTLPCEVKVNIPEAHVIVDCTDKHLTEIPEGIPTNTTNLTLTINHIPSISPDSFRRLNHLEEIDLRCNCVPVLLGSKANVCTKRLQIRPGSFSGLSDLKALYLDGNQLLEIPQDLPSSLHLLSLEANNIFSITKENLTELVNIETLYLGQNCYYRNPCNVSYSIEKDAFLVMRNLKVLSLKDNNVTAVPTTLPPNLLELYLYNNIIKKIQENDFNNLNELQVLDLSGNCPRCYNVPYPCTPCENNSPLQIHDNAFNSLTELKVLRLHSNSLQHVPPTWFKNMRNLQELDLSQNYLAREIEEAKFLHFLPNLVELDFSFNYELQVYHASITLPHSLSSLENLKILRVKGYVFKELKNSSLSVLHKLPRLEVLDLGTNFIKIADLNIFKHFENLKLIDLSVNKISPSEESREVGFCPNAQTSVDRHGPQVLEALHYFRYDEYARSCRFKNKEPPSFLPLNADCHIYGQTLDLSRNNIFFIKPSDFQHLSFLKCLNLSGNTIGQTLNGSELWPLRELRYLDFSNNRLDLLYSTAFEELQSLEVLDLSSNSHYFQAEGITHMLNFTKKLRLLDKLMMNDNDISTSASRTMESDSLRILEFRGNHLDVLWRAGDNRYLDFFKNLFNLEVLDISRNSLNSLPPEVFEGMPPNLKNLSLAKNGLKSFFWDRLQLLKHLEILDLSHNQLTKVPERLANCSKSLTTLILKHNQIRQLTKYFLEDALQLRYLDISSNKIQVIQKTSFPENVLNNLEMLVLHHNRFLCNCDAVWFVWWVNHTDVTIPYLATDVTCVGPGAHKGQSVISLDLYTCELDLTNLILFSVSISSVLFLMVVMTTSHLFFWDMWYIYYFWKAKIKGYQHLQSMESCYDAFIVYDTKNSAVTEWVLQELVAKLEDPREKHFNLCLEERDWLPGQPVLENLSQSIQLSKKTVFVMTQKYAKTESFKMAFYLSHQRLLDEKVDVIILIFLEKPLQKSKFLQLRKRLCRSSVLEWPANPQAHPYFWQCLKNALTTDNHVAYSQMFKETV

Chain of Voltage-gated inwardly rectifying potassium channel KCNH2 (Q12809 whole entry): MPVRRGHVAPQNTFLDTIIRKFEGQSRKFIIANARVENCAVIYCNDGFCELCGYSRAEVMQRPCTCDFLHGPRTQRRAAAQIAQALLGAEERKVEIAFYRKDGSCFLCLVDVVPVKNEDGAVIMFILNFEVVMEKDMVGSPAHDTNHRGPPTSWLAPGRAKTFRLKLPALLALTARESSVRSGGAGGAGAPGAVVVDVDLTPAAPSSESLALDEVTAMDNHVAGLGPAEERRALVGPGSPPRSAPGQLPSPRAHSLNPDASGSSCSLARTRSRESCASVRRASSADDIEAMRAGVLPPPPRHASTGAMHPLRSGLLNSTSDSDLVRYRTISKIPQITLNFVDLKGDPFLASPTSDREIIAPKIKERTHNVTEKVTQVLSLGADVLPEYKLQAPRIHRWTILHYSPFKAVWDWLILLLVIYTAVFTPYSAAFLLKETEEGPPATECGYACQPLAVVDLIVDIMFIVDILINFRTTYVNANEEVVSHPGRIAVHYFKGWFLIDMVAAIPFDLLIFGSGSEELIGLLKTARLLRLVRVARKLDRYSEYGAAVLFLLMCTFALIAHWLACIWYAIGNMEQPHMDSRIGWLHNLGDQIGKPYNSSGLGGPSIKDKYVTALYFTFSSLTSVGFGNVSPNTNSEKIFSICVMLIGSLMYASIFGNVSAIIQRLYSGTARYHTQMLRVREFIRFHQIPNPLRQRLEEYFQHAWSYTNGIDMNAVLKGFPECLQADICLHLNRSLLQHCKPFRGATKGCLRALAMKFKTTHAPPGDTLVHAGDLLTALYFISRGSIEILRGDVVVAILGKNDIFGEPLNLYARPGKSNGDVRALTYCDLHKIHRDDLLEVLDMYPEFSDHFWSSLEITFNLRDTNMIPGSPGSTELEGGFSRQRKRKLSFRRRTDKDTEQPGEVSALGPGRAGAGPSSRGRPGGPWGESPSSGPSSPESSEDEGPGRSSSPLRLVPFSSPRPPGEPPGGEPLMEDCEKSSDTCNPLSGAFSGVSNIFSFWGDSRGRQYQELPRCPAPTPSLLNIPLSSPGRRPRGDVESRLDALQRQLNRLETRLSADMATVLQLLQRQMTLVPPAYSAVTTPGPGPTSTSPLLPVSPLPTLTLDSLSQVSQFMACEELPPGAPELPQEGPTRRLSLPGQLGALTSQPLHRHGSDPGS

- solubility [1]: 110 µM (≈ 43.1 µg/mL)
- IC50 (Toll-like receptor 7): < 5 nM
Structure (SMILES): Cc1cc(-c2cnc(OCC34CCC(N)(CC3)CC4)c(C)c2)c2cnn(C)c2n1
- IC50 [2]: 3.4 µM
